What was measured:
MDCK cells = experiment: MTT cytotoxicity on MDCK cells; type: cell-based; conditions: MTT
Procedure: (§1) To evaluate toxicity towards mammalian cell lines (hepatocytes (Seralab), neurons and MDCK cells (ATCC); a renal cell line from dogs), all the compounds were assayed with MTT [66]. Additionally, for cardiotoxicity evaluation, where toxic effects in cardiomyocytes could be affecting their function before being lethal, a hERG assay was performed according to the manufacturer’s protocol Predictor hERG Fluorescence Polarization Assay (Invitrogen). Briefly, inhibition of hERG channel was analysed by competition of BNIPSpd and a high-affinity red fluorescent hERG channel ligand. BNIPSpd (9) was mixed with the ligand and membranes containing hERG channel, incubated for 2 hrs at RT and the fluorescence polarization was measured using 530 / 590 nm ex/em filters using the Synergy 2 plate reader (Biotek).

[1] = MTT cytotoxicity on MDCK cells; type: cell-based; conditions: dog, MDCK; CC50 cell line / EC50 T. cruzi; read-out: Selectivity Index, MDCK cells
Procedure: as §1

[2] = test system: T. cruzi epimastigotes, wild-type (WT); experiment: T. cruzi epimastigote resazurin viability assay, wild-type; type: cell-based, Trypanosoma cruzi; conditions: CL-Brener, 64 h + 6 h resazurin; means ± SD (n = 4)
Procedure: T. cruzi epimastigotes were seeded at 1.25 x 10^6 cells/mL in a 96-well plate in the presence of varying concentrations of test compounds. Following a 64-hour incubation, 15 μL of a resazurin solution (Sigma-Aldrich; 1.1 mg/mL in PBS). […] Each assay was performed in at least triplicate in parallel to the known trypanocidal agent nifurtimox.

Neurons = experiment: HCS injury score panel in primary neurons; type: cell-based
Procedure: In vitro assays were also performed in primary cells (hepatocytes and neurons) to evaluate BNIPSpd (9) potential toxicity: (a) host cell nuclei counting after HOECHST staining, (b) viability by measuring the metabolism of WST-8 probe, (c) apoptosis induction through caspase 3/7 activation, (d) evaluation of mitochondrial dysfunction by measuring the membrane potential using TMRM probe, (e) membrane integrity by measuring the extracellular LDH, (f) DNA damage by histone H2AX phosphorylation (exclusively in hepatocytes) and (g) imaging of neurite outgrowth (exclusively in neurons).
The assays were performed 24 hrs after cell collection and isolation. For apoptosis, TMRM, HOECHST and WST-8 assays, cells were seeded at a density of 5000 cells/well in coated 96-well plates, incubated for 24 hrs with the compound and then stained during 1 hour with the following fluorescent probes: 5 μM CellEvent Caspase 3/7 Green Detection Reagent (Invitrogen) for measuring caspase 3/7 activation, 50 μM tetramethyl rhodamine methyl ester (TMRM probe, Anaspec Inc.) for measuring mitochondrial depolarization related to transient cytosolic Ca^2+ signals, 5 μg/mL of HOECHST (Sigma-Aldrich) for nuclei detection and 10 μL/well of WST-8 reagent (Sigma-Aldrich) to detect viable cells. Then, absorbance at 450 nm was measured in order to analyse cell viability (WST-8). Cells were washed three times and analysed using the automatic fluorescence microscope BD Pathway 855. Pictures were taken using a 20 X objective and 488/515 nm ex/em filters for CellEvent Caspase 3/7 reagent, 555/ 645 nm ex/em filters for TMRM and 380/460 nm ex/em filters for HOECHST. Data were analysed with AttoVision (Becton Dickinson). The LDH assay was performed according to the manufacturer's protocol, Cytotoxicity Detection Kit LDH (Roche). LDH release was measured in mU/L in culture media obtained from cells subjected to treatments for 24 hrs, by measuring the released LDH rate of oxidation of NADH to NAD^+ at 340 nm using Synergy 2 from BioTech.
For the neurite outgrowth assay, samples were washed with PBS, fixed using methanol for 10 mins at -20°C. The fixed samples were washed three times with PBS and permeabilized with PBS-Triton X-100 0.3% for 10 mins, washed three times and then blocked with BSA 0.5% in PBS for 30 mis. […] Neurite average length was calculated using the neurite outgrowth module of AttoVision software (Becton Dickinson).
Nimesulide (400 μM) was included as a positive toxicity control, and the vehicle as a negative control. The relative percentage of deviation from the negative control was quantified and assigned with a number from 0 to 5 according to the following criteria: 0 (0–20% deviation), 1 (20–40%), 2 (40–60%), 3 (60–100%), 4 (100–1000%), or 5 (>1000% deviation). […]

Solubility = type: physicochemical
C2C12 cells = experiment: C2C12 host cell cytotoxicity (cell ratio) in HCS assay; type: cell-based, Mouse; conditions: CC50 cell line (C2C12)/EC50 T. cruzi
Procedure: (§2) For the evaluation of the activity against T. cruzi amastigotes, high-content screening (HCS) was designed. In summary, 100 μL of host C2C12 cells (ATCC) were seeded in clear bottom black 96-well plates at a density of 2.5 x 10^4 cells/mL (2.5 × 10^3 cells/well). […] The parasites were allowed to infect for a 24 hr period, after which compounds were added in a volume of 50 μL. […] After 72 hrs of compound incubation, the wells were fixed with 4% paraformaldehyde for 15 to 30 mins. The plates were then washed once with deionized water and stained with a solution of DAPI (3 μM) for 1 hour. Plates were imaged in an INCell 2000 (GE Healthcare) high-content analyser by taking 16 pictures per well at 20 X objective amplification. Images were analysed with INCell Developer software (GE Healthcare) using the segmentation of host cell nuclei and parasite kinetoplast DNA. The measurement output used was the average number of parasites per cell calculated by the ratio of host cell nuclei/parasite kinetoplast DNA.

[3] = as above; type: cell-based, Mouse; conditions: mouse, cell ratio, 72 h; read-out: C2C12 Cytotoxicity (CC50 ± SD)
Procedure: as §2

Hepatocytes = experiment: MTT cytotoxicity on hepatocytes; type: cell-based; conditions: MTT
Procedure: as §1

[4] = MTT cytotoxicity on hepatocytes; type: cell-based; conditions: hepatocytes, CC50 cell line / EC50 T. cruzi; read-out: Selectivity Index, hepatocytes
Procedure: as §1

O=C1c2cccc3cccc(c23)C(=O)N1CCCNCCCCNCCCNCCCN1C(=O)c2cccc3cccc(c23)C1=O [Compound 9, BNIP Spermidine]
Nephotoxicity (MDCK cells) cytotoxicity (MDCK cells): ≥ 100 µM | selectivity ratio [1]: 35.2 | EC50 against T. cruzi epimastigotes WT [2]: moderate activity | Concentration from which toxicity was most significant in neurons (Neurons; HCS panel): 12.5 µM | Concentration up to which no effects in neurons (Neurons; HCS panel): 0.7 µM | Injury score for neurons (Neurons; at higher concentrations (50 μM)): high levels | Injury score for neurons (Neurons; combined score of cytotoxicity panel, 24 hrs): moderate injury (moderate injury (≥5-to <12)) | Aqueous solubility (Solubility): up to 70% | Selectivity Index (C2C12 cells): 8.8 | CC50 at 72 h [3]: 24.5 ± 0.45 µM | Hepatotoxicity (Hepatocytes) cytotoxicity (Hepatocytes): ≥ 3.1 µM | selectivity ratio [4]: ~1

Reference: paper PMC5794198, “Inhibitors of Trypanosoma cruzi Sir2 related protein 1 as potential drugs against Chagas disease” (PLoS Neglected Tropical Diseases, 2018)
